The text below walks through data of patent US20250186391A1, “ORAL COMPLEMENT FACTOR D INHIBITORS” (BioCryst Pharmaceuticals, Inc., priority 2019, published 2025).

A value given as a limit tells only on which side of the number the result lay.

Sequence of Factor D (P00746 26-253): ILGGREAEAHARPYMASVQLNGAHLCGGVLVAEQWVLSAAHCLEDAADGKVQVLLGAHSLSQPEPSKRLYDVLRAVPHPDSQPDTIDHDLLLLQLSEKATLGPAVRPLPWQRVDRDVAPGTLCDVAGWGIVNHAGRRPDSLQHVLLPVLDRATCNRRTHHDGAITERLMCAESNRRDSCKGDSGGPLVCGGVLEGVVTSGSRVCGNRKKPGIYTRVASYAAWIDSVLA

This assay addresses Factor D (Homo sapiens (Human), UniProt P00746). As to the kind of experiment: Factor D esterolytic assay. The assay is classed as biochemical. The conditions noted are these: Z-Lys-SBzl substrate, 100 mM HEPES, 500 mM NaCl, pH 7.5, 10% DMSO; tested a minimum of three times; read-out: Measured Ki (IC50) Value for Compounds: IC50. The essentials: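 Chromogenic thioesterase read-out: Z-Lys-SBzl (1.29 mM) hydrolysis by human Factor D, thiol detected with DTNB at 405 nm (690 nm background subtracted) for 600 s. Run in 100 mM HEPES, 500 mM NaCl, pH 7.5, 10% DMSO, substrate added immediately or after room-temperature preincubation. IC50 from percent inhibition versus enzyme alone, n≥3.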
Regarding `CC(C)c1ccc(CC(=O)O)c(OCc2coc3ccc(-c4cccc(CN)c4)cc23)c1` [Compound 190f, 2-(2-((5-(3-(aminomethyl)phenyl)benzofuran-3-yl)methoxy)-4-isopropylphenyl)acetic acid], the concentration for half-maximal inhibition (IC50) is less than 1 µM.
Consider `COc1ccc(CC(=O)O)c(OCc2c(C)oc3c(NCC4CC4)cc(-c4cccc(CN)c4)cc23)c1` [Compound 274c, 2-(2-((5-(3-(aminomethyl)phenyl)-7-((cyclopropylmethyl)amino)-2-methylbenzofuran-3-yl)methoxy)-4-methoxyphenyl)acetic acid], for which the IC50 is less than 1 µM.
The same measure for `COc1cc(-c2cccc(CN)c2)cc2c(COc3c(C)cccc3CC(=O)O)coc12` [Compound 237c, 2-(2-((5-(3-(aminomethyl)phenyl)-7-methoxybenzofuran-3-yl)methoxy)-3-methylphenyl)acetic acid]: less than 1 µM; for `COc1ccc(CC(=O)O)c(OCc2c(C)oc3ccc(-c4ccnc(CN)c4)cc23)c1` [Compound 203d, 2-(2-((5-(2-(aminomethyl)pyridin-4-yl)-2-methylbenzofuran-3-yl)methoxy)-4-methoxyphenyl)acetic acid]: less than 1 µM.
To `NCc1cccc(-c2ccc3c(c2)c(COc2ccccc2CC(=O)O)nn3CC2CC2)c1` [Compound 258f, 2-(2-((5-(3-(aminomethyl)phenyl)-1-(cyclopropylmethyl)-1H-indazol-3-yl)methoxy)phenyl)acetic acid] belongs less than 1 µM; to `NCc1cccc(-c2cc3c(COc4ccccc4CC(=O)O)cccc3o2)c1` [Compound 282f, 2-(2-((2-(3-(aminomethyl)phenyl)benzofuran-4-yl)methoxy)phenyl)acetic acid], less than 1 µM.
The same measure for `CC(C)CNc1cc(-c2cccc(CN)c2)cc2c(COc3ccccc3CC(=O)O)coc12` [Compound 151d, 2-(2-((5-(3-(aminomethyl)phenyl)-7-(isobutylamino)benzofuran-3-yl)methoxy)phenyl)acetic acid]: less than 1 µM; for `NCc1cccc(-c2ccc3oc(C(N)=O)c(COc4ccccc4CC(=O)O)c3c2)c1` [Compound 103c, 2-(2-((5-(3-(aminomethyl)phenyl)-2-carbamoylbenzofuran-3-yl)methoxy)phenyl)acetic acid]: less than 1 µM; for `NCc1cccc(-c2cc(COc3ccccc3)cc3cc(COc4ccccc4CC(=O)O)oc23)c1` [Compound 33f, 2-(2-((7-(3-(aminomethyl)phenyl)-5-(phenoxymethyl)benzofuran-2-yl)methoxy)phenyl)acetic acid]: less than 1 µM.
For the molecule `NCc1cccc(-c2cc(C3CC3)c3occ(COc4ccccc4CC(=O)O)c3c2)c1` [Compound 120c, 2-(2-((5-(3-(aminomethyl)phenyl)-7-cyclopropylbenzofuran-3-yl)methoxy)phenyl)acetic acid], the IC50 was less than 1 µM.
To `NCc1cccc(-c2ccc3occ(COc4ccccc4C(=O)O)c3c2)c1` [Compound 1f, 2-((5-(3-(aminomethyl)phenyl)benzofuran-3-yl)methoxy)benzoic acid] belongs less than 1 µM; to `CC(C)n1nc(COc2ccccc2CC(=O)O)c2cc(-c3cccc(CN)c3F)ccc21` [Compound 310b, 2-(2-((5-(3-(aminomethyl)-2-fluorophenyl)-1-isopropyl-1H-indazol-3-yl)methoxy)phenyl)acetic acid], less than 1 µM.
To `NCc1cccc(-c2cc(-c3cc4ccccc4[nH]3)c3occ(COc4ccccc4CC(=O)O)c3c2)c1` [Compound 137c, 2-(2-((5-(3-(aminomethyl)phenyl)-7-(1H-indol-2-yl)benzofuran-3-yl)methoxy)phenyl)acetic acid] belongs less than 1 µM; to `NCc1cccc(-c2ccc3occ(COc4cc(C(=O)O)ccc4CC(=O)O)c3c2)c1` [Compound 158d, 3-((5-(3-(aminomethyl)phenyl)benzofuran-3-yl)methoxy)-4-(carboxymethyl)benzoic acid], less than 1 µM; to `COc1ccc(CC(=O)O)c(OCc2c(C)oc3ccc(-c4cc(F)cc(CN)c4)cc23)c1` [Compound 239c, 2-(2-((5-(3-(aminomethyl)-5-fluorophenyl)-2-methylbenzofuran-3-yl)methoxy)-4-methoxyphenyl)acetic acid], less than 1 µM.
The same measure for `CC(C)(C)OC(=O)c1oc2ccc(-c3cccc(CN)c3)cc2c1COc1ccccc1CC(=O)O` [Compound 86b, 2-(2-((5-(3-(aminomethyl)phenyl)-2-(tert-butoxycarbonyl)benzofuran-3-yl)methoxy)phenyl)acetic acid]: less than 1 µM.
As for `COc1ccc(CC(=O)O)c(OCc2coc3ccc(-c4cccc(CN)c4F)cc23)c1` [Compound 6e, 2-(2-((5-(3-(aminomethyl)-2-fluorophenyl)benzofuran-3-yl)methoxy)-4-methoxyphenyl)acetic acid], the IC50 is less than 1 µM.
To `Cc1oc2ccc(-c3cccc(CN)c3)cc2c1COc1ccccc1CC(=O)O` [Compound 124f, 2-(2-((5-(3-(aminomethyl)phenyl)-2-methylbenzofuran-3-yl)methoxy)phenyl)acetic acid] belongs less than 1 µM; to `NCc1cccc(-c2cc(CNCC(F)(F)F)c3occ(COc4ccccc4CC(=O)O)c3c2)c1` [Compound 179b, 2-(2-((5-(3-(aminomethyl)phenyl)-7-(((2,2,2-trifluoroethyl)amino)methyl)benzofuran-3-yl)methoxy)phenyl)acetic acid], less than 1 µM; to `COC[C@H]1CCCN1Cc1cc(-c2cccc(CN)c2)cc2c(COc3ccccc3CC(=O)O)coc12` [Compound 205d, (R)-2-(2-((5-(3-(aminomethyl)phenyl)-7-((2-(methoxymethyl)pyrrolidin-1-yl)methyl)benzofuran-3-yl)methoxy)phenyl)acetic acid], less than 1 µM.
To `Cc1cc2c(o1)c(-c1cccc(CN)c1)cc1c(COc3ccccc3CC(=O)O)c(C)oc12` [Compound 272n, 2-(2-((5-(3-(aminomethyl)phenyl)-2,7-dimethylbenzo[1,2-b:3,4-b′]difuran-3-yl)methoxy)phenyl)acetic acid] belongs less than 1 µM; to `CC(C(=O)O)c1ccccc1OCc1coc2c(NCC3CCCC3)cc(-c3cccc(CN)c3)cc12` (stereo not drawn) [Compound 186c, 2-(2-((5-(3-(aminomethyl)phenyl)-7-((cyclopentylmethyl)amino)benzofuran-3-yl)methoxy)phenyl)propanoic acid], less than 1 µM; to `CC(C)(C)c1oc2ccc(-c3cccc(CN)c3)cc2c1COc1cc(F)ccc1CC(=O)O` [Compound 173c, 2-(2-((5-(3-(aminomethyl)phenyl)-2-(tert-butyl)benzofuran-3-yl)methoxy)-4-fluorophenyl)acetic acid], less than 1 µM.
Consider `Cc1oc2c(cc(-c3cccc(CN)c3)c3occc32)c1COc1ccccc1CC(=O)O` [Compound 233h, 2-(2-((5-(3-(aminomethyl)phenyl)-2-methylbenzo[1,2-b:3,4-b′]difuran-3-yl)methoxy)phenyl)acetic acid], for which the IC50 was less than 1 µM.
The same measure for `N#Cc1ccc(CC(=O)O)c(OCc2coc3ccc(-c4cccc(CN)c4)cc23)c1` [Compound 57d, 2-(2-((5-(3-(aminomethyl)phenyl)benzofuran-3-yl)methoxy)-4-cyanophenyl)acetic acid]: less than 1 µM; for `CC(C)c1ccccc1-c1cc(-c2cccc(CN)c2)cc2c(COc3ccccc3CC(=O)O)coc12` [Compound 219c, 2-(2-((5-(3-(aminomethyl)phenyl)-7-(2-isopropylphenyl)benzofuran-3-yl)methoxy)phenyl)acetic acid]: less than 1 µM; for `CCc1oc2ccc(-c3cccc(CN)c3F)cc2c1COc1cc(OC)ccc1CC(=O)O` [Compound 227b, 2-(2-((5-(3-(aminomethyl)-2-fluorophenyl)-2-ethylbenzofuran-3-yl)methoxy)-4-methoxyphenyl)acetic acid]: less than 1 µM.
To `NCc1cccc(-c2cc(CNCC3CC3)cc3cc(COc4ccccc4CC(=O)O)oc23)c1` [Compound 11d, 2-(2-((7-(3-(aminomethyl)phenyl)-5-(((cyclopropylmethyl)amino)methyl)benzofuran-2-yl)methoxy)phenyl)acetic acid] belongs less than 1 µM; to `Cn1nc(COc2ccccc2CC(=O)O)c2cc(-c3cccc(CN)c3)ccc21` [Compound 117d, 2-(2-((5-(3-(aminomethyl)phenyl)-1-methyl-1H-indazol-3-yl)methoxy)phenyl)acetic acid], less than 1 µM; to `Cn1cncc1COc1cc(-c2cccc(CN)c2)cc2c(COc3ccccc3CC(=O)O)coc12` [Compound 199f, 2-(2-((5-(3-(aminomethyl)phenyl)-7-((1-methyl-1H-imidazol-5-yl)methoxy)benzofuran-3-yl)methoxy)phenyl)acetic acid], less than 1 µM.
Consider `Cc1cc(-c2cc(-c3cccc(CN)c3)cc3c(COc4ccccc4CC(=O)O)coc23)cn(C)c1=O` [Compound 224c, 2-(2-((5-(3-(aminomethyl)phenyl)-7-(1,5-dimethyl-6-oxo-1,6-dihydropyridin-3-yl)benzofuran-3-yl)methoxy)phenyl)acetic acid], for which the IC50 is less than 1 µM.
`Cc1c(CN)cccc1-c1ccc2c(c1)c(COc1ccccc1CC(=O)O)nn2C(C)C` [Compound 330c, 2-(2-((5-(3-(aminomethyl)-2-methylphenyl)-1-isopropyl-1H-indazol-3-yl)methoxy)phenyl)acetic acid]: the IC50 was less than 1 µM.
The same measure for `Cc1ccc(S(=O)(=O)n2cc(COc3ccccc3CC(=O)O)c3cc(-c4cccc(CN)c4)ccc32)cc1` [Compound 66f, 2-(2-((5-(3-(aminomethyl)phenyl)-1-tosyl-1H-indol-3-yl)methoxy)phenyl)acetic acid]: less than 1 µM.

A word on the IC50: it is the midpoint of a concentration-inhibition curve.
